Assay results taken from patent US10307413B2, “Tetrahydro- and dihydro-isoquinoline PRMT5 inhibitors and uses thereof” (Epizyme, Inc., priority 2013, dated 2019).
Where two headings read alike, the source gives them in different places.

Assays:
[1] = system: symmetric di-methyl arginine in Z-138 cells; assay: Z-138 Methylation Assay (In Cell Western for symmetric di-methyl arginine and DNA content); type: cell-based; details: Homo sapiens, read-out: ICW EC50
Outline: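 Z-138 cells (50,000 cells/mL) treated with compound 96 h at 37 °C, then fixed and stained for symmetric di-methyl arginine (800 nm) with DRAQ5 DNA counterstain (700 nm) on Licor Odyssey.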

[2] = system: Z-138 cell line; assay: Z-138 Proliferation Assay (Cell Titer Glo, 5 days); type: cell-based; details: Homo sapiens, 120 h, Z-138 cells, 5 days, read-out: Proliferation EC50
Outline: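 Z-138 cells exposed 5 days at 37 °C, 5% CO2 to nine-point 3-fold dilutions (final top 20 μM, 0.2% DMSO), in triplicate. Viability read as ATP by CellTiter-Glo luminescence; IC50 from 4-parameter fit of normalized dose-response curves.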

[3] = target: PRMT5/MEP50 (Homo sapiens (Human), UniProt O14744); assay: PRMT5 Biochemical Assay (PRMT5/MEP50 enzyme assay on peptide substrate, 3H-SAM Flashplate)
Excerpt: S-adenosylmethionine (SAM), S-adenosylhomocysteine (SAH), bicine, KCl, Tween20, dimethylsulfoxide (DMSO), bovine skin gelatin (BSG), and Tris(2-carboxyethyl)phosphine hydrochloride solution (TCEP) were purchased from Sigma-Aldrich at the highest level of purity possible. ^3H-SAM was purchase from American Radiolabeled Chemicals with a specific activity of 80 Ci/mmol. 384-well streptavidin Flashplates were purchased from PerkinElmer.
Peptide representative of human histone H4 residues 1-15 was synthesized with a C-terminal linker-affinity tag motif and a C-terminal amide cap by 21st Century Biochemicals.
The amplified genes were sublconed into pENTR/D/TEV (Life Technologies) and subsequently transferred by Gateway™ attL×attR recombination to pDEST8 baculovirus expression vector (Life Technologies).
Protein over-expression was accomplished by infecting exponentially growing Spodoptera frugiperda (SF9) cell culture at 1.2×10^6 cell/ml with a 5000 fold dilution of BIIC stock. Infections were carried out at 27° C. for 72 hours, harvested by centrifugation, and stored at −80° C. for purification.
Flag-PRMT5/6His-MeP50 was eluted with 300 mM Imidazole in the same buffer.
General Procedure for PRMT5/MEP50 Enzyme Assays on Peptide Substrates.
The assays were all performed in a buffer consisting of 20 mM Bicine (pH=7.6), 1 mM TCEP, 0.005% BSG, and 0.002% Tween20, prepared on the day of use. […] DMSO (1 ul) was added to Columns 11, 12, 23, 24, rows A-H for the maximum signal control and 1 ul of SAH, a known product and inhibitor of PRMT5/MEP50, was added to columns 11, 12, 23, 24, rows I-P for the minimum signal control. A cocktail (40 ul) containing the PRMT5/MEP50 enzyme and the peptide was added by Multidrop Combi (Thermo-Fisher). The compounds were allowed to incubate with PRMT5/MEP50 for 30 min at 25 degrees Celsius, then a cocktail (10 ul) containing ^3H-SAM was added to initiate the reaction (final volume=51 ul). […] The assays were stopped by the addition of non-radioactive SAM (10 ul) to a final concentration of 600 uM, which dilutes the ^3H-SAM to a level where its incorporation into the peptide substrate is no longer detectable. 50 ul of the reaction in the 384-well polypropylene plate was then transferred to a 384-well Flashplate and the biotinylated peptides were allowed to bind to the streptavidin surface for at least 1 hour before being washed three times with 0.1% Tween20 in a Biotek ELx405 plate washer. The plates were then read in a PerkinElmer TopCount plate reader to measure the quantity of ^3H-labeled peptide bound to the Flashplate surface, measured as disintegrations per minute (dpm) or alternatively, referred to as counts per minute (cpm).
[formula] [formula] Where dpm=disintegrations per minute, cmpd=signal in assay well, and min and max are the respective minimum and maximum signal controls.
[formula] [formula] Where top and bottom are the normally allowed to float, but may be fixed at 100 or 0 respectively in a 3-parameter fit. The Hill Coefficient normally allowed to float but may also be fixed at 1 in a 3-parameter fit. Y is the % inhibition and X is the compound concentration.

Sequence of PRMT5/MEP50 (O14744 other isoform, or with tags, fused parts or gaps): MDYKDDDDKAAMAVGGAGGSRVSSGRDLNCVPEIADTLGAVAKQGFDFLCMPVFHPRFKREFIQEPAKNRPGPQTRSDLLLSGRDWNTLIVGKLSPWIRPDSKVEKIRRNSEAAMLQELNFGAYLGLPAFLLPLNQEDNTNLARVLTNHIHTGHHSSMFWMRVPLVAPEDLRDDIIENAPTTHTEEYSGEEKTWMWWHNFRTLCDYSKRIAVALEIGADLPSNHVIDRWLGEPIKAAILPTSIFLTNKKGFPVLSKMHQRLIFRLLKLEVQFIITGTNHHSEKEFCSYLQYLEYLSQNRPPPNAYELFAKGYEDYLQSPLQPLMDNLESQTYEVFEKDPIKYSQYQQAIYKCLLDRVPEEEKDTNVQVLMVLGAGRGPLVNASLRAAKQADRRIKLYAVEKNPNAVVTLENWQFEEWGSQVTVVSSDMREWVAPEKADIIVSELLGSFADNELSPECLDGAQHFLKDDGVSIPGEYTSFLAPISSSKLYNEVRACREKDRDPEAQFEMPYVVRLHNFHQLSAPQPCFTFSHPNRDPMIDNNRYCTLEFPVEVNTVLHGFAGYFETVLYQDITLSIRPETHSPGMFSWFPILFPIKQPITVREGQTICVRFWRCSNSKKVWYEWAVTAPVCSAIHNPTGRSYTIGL
Sequence of PRMT5/MEP50 (Q9BQA1 other isoform, or with tags, fused parts or gaps partner): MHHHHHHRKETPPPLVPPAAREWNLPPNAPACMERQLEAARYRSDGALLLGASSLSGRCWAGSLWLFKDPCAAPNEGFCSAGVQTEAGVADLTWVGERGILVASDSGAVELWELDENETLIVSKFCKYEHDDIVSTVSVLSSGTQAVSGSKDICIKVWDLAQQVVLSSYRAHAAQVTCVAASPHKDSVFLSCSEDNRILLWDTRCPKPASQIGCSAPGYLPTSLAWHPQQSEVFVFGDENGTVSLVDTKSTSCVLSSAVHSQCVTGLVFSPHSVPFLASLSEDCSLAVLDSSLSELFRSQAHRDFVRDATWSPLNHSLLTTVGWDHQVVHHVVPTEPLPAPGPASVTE

EC50 ([1]; In Cell Western methylation) [nM] | IC50 ([3]; PRMT5 biochemical assay) [nM] | EC50 [1] [nM] | IC50 [3] [nM] | Compound | EC50 ([2]; Cell Titer Glo) [nM] | EC50 [2] [nM]
< 100 | < 100 |  |  | CC(=O)N1CCC(Nc2cc(C(=O)NC[C@H](O)CN3CCc4ccccc4C3)nc(N3CCN(C(C)=O)CC3)c2)CC1 [Compound 679] | 101 to 1000 | 
< 100 | < 100 |  |  | CC(=O)N1CC(Nc2cc(C(=O)NC[C@H](O)CN3CCc4c(C)cccc4C3)ncn2)C1 [Compound 676] | 1000 to 10000 | 
< 100 | < 100 |  |  | CC(=O)N1CC(Nc2cncc(C(=O)NC[C@H](O)CN3CCc4ccccc4C3)c2)C1 [Compound 444] | 101 to 1000 | 
 |  | < 100 | 101 to 1000 | CNCCOc1ccc2cc(C(=O)NC[C@H](O)CN3CCc4ccccc4C3)ccc2c1 [Compound 361] |  | 1000 to 10000
< 100 | < 100 |  |  | O=C(NC[C@H](O)CN1CCc2ccccc2C1)c1cccc(NC2COC2)n1 [Compound 436] | 1000 to 10000 | 
 |  | < 100 | < 100 | O=C(NC[C@H](O)CN1CCc2ccccc2C1)c1ccc2cc(OCCNCCO)ccc2c1 [Compound 368] |  | 1000 to 10000
 |  | 101 to 1000 | 1000 to 10000 | CN(C[C@H](O)CN1CCc2ccccc2C1)C(=O)c1ccnc(N(C)C2CCOCC2)c1 [Compound 358] |  | > 20000
< 100 | < 100 |  |  | CN1CCCCC1CNc1cc(C(=O)NC[C@H](O)CN2CCc3ccccc3C2)ccn1 (stereo partly drawn) [Compound 411] | 101 to 1000 | 
< 100 | < 100 |  |  | COCCN(C)c1cc(C(=O)NC[C@H](O)CN2CCc3ccccc3C2)cc(NC2CCN(C(C)=O)CC2)n1 [Compound 614] | < 100 | 
 |  | < 100 | < 100 | CCN(C)CCOc1ccc(C(=O)NC[C@H](O)CN2CCc3ccccc3C2)cc1 [Compound 385] |  | 1000 to 10000
< 100 | < 100 |  |  | CN(C)[C@H]1CC[C@H](Nc2cc(C(=O)NC[C@H](O)CN3CCc4ccccc4C3)ncn2)CC1 [Compound 593] | 101 to 1000 | 
101 to 1000 | 101 to 1000 |  |  | CC(NC(=O)c1cc(NC2CCN(C)CC2)ncn1)C(O)CN1CCc2ccccc2C1 (stereo not drawn) [Compound 535] | > 5000 | 
< 100 | < 100 |  |  | O=C(NC[C@H](O)CN1CCc2ccccc2C1)c1cc(N[C@H]2C[C@H](N3CCOCC3)C2)ncn1 [Compound 558] | 101 to 1000 | 
 |  | < 100 | < 100 | CN(C)[C@H]1C[C@H](Nc2cc(C(=O)NC[C@H](O)CN3CCc4ccccc4C3)ncn2)C1 [Compound 376] |  | 1000 to 10000
< 100 | < 100 |  |  | CC(C)(C)C(=O)N1CC(Nc2cc(C(=O)NC[C@H](O)CN3CCc4ccccc4C3)ccn2)C1 [Compound 505] | 101 to 1000 | 
< 100 | < 100 |  |  | CCC(=O)N1CCN(c2nc(NC3COC3)cc(C(=O)NC[C@H](O)CN3CCc4ccccc4C3)n2)CC1 [Compound 462] | < 100 | 
101 to 1000 | 101 to 1000 |  |  | CC(=O)N1CCC(Nc2cc(C(=O)NCC(O)C(C)N3CCc4ccccc4C3)ccn2)CC1 (stereo not drawn) [Compound 692] | > 5000 | 
101 to 1000 | < 100 |  |  | CN(C)[C@H]1CC[C@@H](Nc2cc(C(=O)NC[C@H](O)CN3CCc4ccccc4C3)ncn2)CC1 [Compound 589] | 1000 to 10000 | 
> 1000 | 101 to 1000 |  |  | CC(=O)N1CC(Nc2cc(C(=O)NCC(O)C(C)N3CCc4ccccc4C3)ncn2)C1 (stereo not drawn) [Compound 608] | > 5000 | 
< 100 | < 100 |  |  | O=C(NC[C@H](O)CN1CCc2ccccc2C1)c1cnnc(NC2CCOC2)c1 (stereo partly drawn) [Compound 544] | 101 to 1000 | 
< 100 | < 100 |  |  | NC(=O)CN1CCC(Nc2cc(C(=O)NC[C@H](O)CN3CCc4ccccc4C3)ncn2)CC1 [Compound 532] | 101 to 1000 | 
< 100 | < 100 |  |  | CC(=O)N1CCC(Nc2cc(C(=O)NC[C@H](O)CN3CCc4cccc(C)c4C3)ncn2)CC1 [Compound 664] | 101 to 1000 | 

Second part, the molecule before the results:

Compound | EC50 ([1]; In Cell Western methylation) [nM] | IC50 ([3]; PRMT5 biochemical assay) [nM] | EC50 [1] [nM] | IC50 [3] [nM] | EC50 ([2]; Cell Titer Glo) [nM] | EC50 [2] [nM]
O=C(NC[C@H](O)CN1CCc2ccccc2C1)c1cc(N[C@H]2C[C@@H](C(=O)N3CCCCC3)C2)ncn1 [Compound 519] | < 100 | < 100 |  |  | 101 to 1000 | 
CC(=O)N1CCC(Nc2ccnc(C(=O)NC[C@H](O)CN3CCc4ccccc4C3)c2)CC1 [Compound 551] | < 100 | < 100 |  |  | < 100 | 
CC(C)CC(=O)N1CC(Nc2cc(C(=O)NC[C@H](O)CN3CCc4ccccc4C3)ccn2)C1 [Compound 504] | < 100 | < 100 |  |  | < 100 | 
O=C(NC[C@H](O)CN1CCc2ccccc2C1)c1cc(OC2CNC2)ncn1 [Compound 439] | 101 to 1000 | < 100 |  |  | 10000 to 50000 | 
CN(C[C@H](O)CN1CCc2ccccc2C1)C(=O)c1cc(N(C)C2CCOCC2)ncn1 [Compound 313] |  |  | < 100 | < 100 |  | 1000 to 10000
CC(C)(C)c1nc(NC2COC2)cc(C(=O)NC[C@H](O)CN2CCc3ccccc3C2)n1 [Compound 527] | < 100 | < 100 |  |  | 101 to 1000 | 
Cn1ccc(Nc2cc(C(=O)NC[C@H](O)CN3CCc4ccccc4C3)ccn2)n1 [Compound 342] |  |  | < 100 | < 100 |  | 1000 to 10000
CC(C)(C)c1nc(NC2CNC2)cc(C(=O)NC[C@H](O)CN2CCc3ccccc3C2)n1 [Compound 522] | < 100 | < 100 |  |  | 1000 to 10000 | 
O=C(NC[C@H](O)CN1CCc2ccccc2C1)c1ccnc(Nc2cccnc2)c1 [Compound 343] |  |  | < 100 | < 100 |  | < 100
O=C(NC[C@H](O)CN1CCc2ccccc2C1)c1cc(N[C@H]2C[C@H](O)C2)ncn1 [Compound 521] | < 100 | < 100 |  |  | 101 to 1000 | 
CS(=O)(=O)Nc1ccc(C(=O)NCC(O)CN2CCc3ccccc3C2)cc1 (stereo not drawn) [Compound 31] |  |  | 101 to 1000 | 101 to 1000 |  | 10000 to 50000
CC(=O)N[C@H]1C[C@H](Nc2cc(C(=O)NC[C@H](O)CN3CCc4ccccc4C3)ncn2)C1 [Compound 440] | < 100 | < 100 |  |  | 101 to 1000 | 
CNC(=O)[C@H]1C[C@@H](Nc2cc(C(=O)NC[C@H](O)CN3CCc4ccccc4C3)ncn2)C1 [Compound 513] | < 100 | < 100 |  |  | 101 to 1000 | 
O=C(NC[C@H](O)CN1CCc2ccccc2C1)c1cc(NC2CCN(C(=O)C3CCC3)CC2)ncn1 [Compound 419] | < 100 | < 100 |  |  | < 100 | 
O=C(NC[C@H](O)CN1CCc2ccccc2C1)C1=CC2=NC(CO)CN2C=N1 (stereo partly drawn) [Compound 473] | > 1000 | 101 to 1000 |  |  | > 20000 | 
COC(CNC(=O)c1cc(NC2CN(C(C)=O)C2)ncn1)CN1CCc2ccccc2C1 (stereo not drawn) [Compound 690] | 101 to 1000 | 101 to 1000 |  |  | > 5000 | 
CC(=O)Nc1cccc(C(=O)NCC(O)CN2CCc3ccccc3C2)c1 (stereo not drawn) [Compound 26] |  |  | 101 to 1000 | 101 to 1000 |  | 10000 to 50000
O=C(NC[C@H](O)CN1CCc2ccccc2C1)c1cc(NC2COC2)nc(N2CCCC2)n1 [Compound 451] | < 100 | < 100 |  |  | 101 to 1000 | 
CCS(=O)(=O)CCNc1cc(C(=O)NC[C@H](O)CN2CCc3ccccc3C2)ncn1 [Compound 641] | < 100 | < 100 |  |  | 1000 to 10000 | 
